Measurements as given in ChEMBL document CHEMBL1201862, “PubChem BioAssay data set” (2004).
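Values below derive from 48-hour exposures of cells grown in 96-well plates, with endpoints linearly interpolated between the two concentrations bracketing the appropriate inhibition level. GI50 is the concentration that inhibits growth by half.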 Calls of active or inactive are those of the source. Cut-off read from the data, not from the text of the source: active = GI50 up to about 1.1 µM and inactive = higher.

What was measured:
Test in all cases: NCI-60 cell line screen, 48 h
DLD-1 = system: DLD-1
ACHN = system: ACHN
HL-60 = system: HL-60
RXF 393 = system: RXF 393
SNB-75 = system: SNB-75
Malme-3M = system: Malme-3M
A549 = system: A549
M19-MEL = system: M19-MEL
SNB-19 = system: SNB-19
SNB-78 = system: SNB-78
UACC-257 = system: UACC-257
DMS-273 = system: DMS-273
HOP-62 = system: HOP-62
CAKI-1 = system: CAKI-1
UO-31 = system: UO-31
LXFL 529 = system: LXFL 529
HCT-116 = system: HCT-116
KM-20L2 = system: KM-20L2
HOP-18 = system: HOP-18
IGROV-1 = system: IGROV-1
EKVX = system: EKVX
SK-MEL-2 = system: SK-MEL-2
HT-29 = system: HT-29
SW-620 = system: SW-620
SF-295 = system: SF-295
LOX IMVI = system: LOX IMVI
786-0 = system: 786-0
M14 = system: M14
A498 = system: A498
NCI-H522 = system: NCI-H522
DMS-114 = system: DMS-114
XF498 = system: XF498
UACC-62 = system: UACC-62
HCC 2998 = system: HCC 2998
RXF 631 = system: RXF 631
OVCAR-5 = system: OVCAR-5
TK-10 = system: TK-10
SK-OV-3 = system: SK-OV-3
NCI-H226 = system: NCI-H226
U-251 = system: U-251
OVCAR-4 = system: OVCAR-4
OVCAR-3 = system: OVCAR-3
OVCAR-8 = system: OVCAR-8
HOP-92 = system: HOP-92
NCI-H460 = system: NCI-H460
HCT-15 = system: HCT-15
SF-539 = system: SF-539
SF-268 = system: SF-268
SN12C = system: SN12C
CCRF-CEM = system: CCRF-CEM
SR = system: SR
K562 = system: K562
NCI-H23 = system: NCI-H23
MOLT-4 = system: MOLT-4
SK-MEL-28 = system: SK-MEL-28
RPMI-8226 = system: RPMI-8226
COLO 205 = system: COLO 205
KM12 = system: KM12

`O=C(CC1=Nc2nnc(CCCCCCCc3nnc4n3C(=O)C(CC(=O)c3ccc5ccccc5c3)=N4)n2C1=O)c1ccc2ccccc2c1` was tested, and the GI50 (DLD-1) was > 100 µM (inactive), the GI50 (ACHN) was > 100 µM (inactive) and the GI50 (HL-60) was > 100 µM (inactive). For the same molecule, the GI50 (RXF 393) was > 100 µM (inactive), the GI50 (SNB-75) was > 100 µM (inactive) and the GI50 (Malme-3M) was > 100 µM (inactive). For the same molecule, the GI50 (A549) was > 100 µM (inactive), the GI50 (M19-MEL) was > 100 µM (inactive) and the GI50 (SNB-19) was > 100 µM (inactive). The GI50 (SNB-78) was > 100 µM (inactive), the GI50 (UACC-257) was > 100 µM (inactive) and the GI50 (DMS-273) was > 100 µM (inactive). The GI50 (HOP-62) was > 100 µM (inactive), the GI50 (CAKI-1) was > 100 µM (inactive) and the GI50 (UO-31) was > 100 µM (inactive). The GI50 (LXFL 529) was > 100 µM (inactive), the GI50 (HCT-116) was > 100 µM (inactive) and the GI50 (KM-20L2) was > 100 µM (inactive). The GI50 (HOP-18) was > 100 µM (inactive), the GI50 (IGROV-1) was 66.2 µM (inactive) and the GI50 (EKVX) was 63.5 µM (inactive). For the same molecule, the GI50 (SK-MEL-2) was > 100 µM (inactive), the GI50 (HT-29) was > 100 µM (inactive) and the GI50 (SW-620) was > 100 µM (inactive). For the same molecule, the GI50 (SF-295) was > 100 µM (inactive), the GI50 (LOX IMVI) was > 100 µM (inactive) and the GI50 (786-0) was > 100 µM (inactive). The GI50 (M14) was > 100 µM (inactive), the GI50 (A498) was < 0.01 µM (active) and the GI50 (NCI-H522) was > 100 µM (inactive). The GI50 (DMS-114) was > 100 µM (inactive), the GI50 (XF498) was > 100 µM (inactive) and the GI50 (UACC-62) was > 100 µM (inactive). For the same molecule, the GI50 (HCC 2998) was > 100 µM (inactive), the GI50 (RXF 631) was 51.9 µM (inactive) and the GI50 (OVCAR-5) was > 100 µM (inactive). For the same molecule, the GI50 (TK-10) was > 100 µM (inactive), the GI50 (SK-OV-3) was > 100 µM (inactive) and the GI50 (NCI-H226) was > 100 µM (inactive). For the same molecule, the GI50 (U-251) was > 100 µM (inactive), the GI50 (OVCAR-4) was > 100 µM (inactive) and the GI50 (OVCAR-3) was > 100 µM (inactive). For the same molecule, the GI50 (OVCAR-8) was > 100 µM (inactive), the GI50 (HOP-92) was > 100 µM (inactive) and the GI50 (NCI-H460) was > 100 µM (inactive). For the same molecule, the GI50 (HCT-15) was > 100 µM, the GI50 (SF-539) was > 100 µM (inactive) and the GI50 (SF-268) was > 100 µM (inactive). For the same molecule, the GI50 (SN12C) was > 100 µM (inactive), the GI50 (CCRF-CEM) was > 100 µM (inactive) and the GI50 (SR) was > 100 µM (inactive). The GI50 (K562) was > 100 µM (inactive), the GI50 (NCI-H23) was > 100 µM (inactive) and the GI50 (MOLT-4) was > 100 µM (inactive). For the same molecule, the GI50 (SK-MEL-28) was > 100 µM (inactive), the GI50 (RPMI-8226) was > 100 µM (inactive) and the GI50 (COLO 205) was > 100 µM (inactive). For the same molecule, the GI50 (KM12) was > 100 µM (inactive).

With `COC(=O)/C(=N\Nc1nc(S)nn1N)C(C#N)c1ccc(Cl)cc1` (stereo not given) the GI50 (DLD-1) was > 100 µM (inactive), the GI50 (ACHN) was > 100 µM (inactive) and the GI50 (RXF 393) was > 100 µM (inactive). For the same molecule, the GI50 (SNB-75) was > 100 µM (inactive), the GI50 (Malme-3M) was > 100 µM (inactive) and the GI50 (A549) was > 100 µM (inactive). For the same molecule, the GI50 (M19-MEL) was > 100 µM (inactive), the GI50 (SNB-19) was > 100 µM (inactive) and the GI50 (SNB-78) was > 100 µM (inactive). For the same molecule, the GI50 (UACC-257) was > 100 µM (inactive), the GI50 (DMS-273) was > 100 µM (inactive) and the GI50 (HOP-62) was > 100 µM (inactive). The GI50 (CAKI-1) was > 100 µM (inactive), the GI50 (UO-31) was > 100 µM (inactive) and the GI50 (LXFL 529) was > 100 µM (inactive). The GI50 (HCT-116) was > 100 µM (inactive), the GI50 (KM-20L2) was > 100 µM (inactive) and the GI50 (HOP-18) was > 100 µM (inactive). For the same molecule, the GI50 (IGROV-1) was > 100 µM (inactive), the GI50 (EKVX) was > 100 µM (inactive) and the GI50 (SK-MEL-2) was > 100 µM (inactive). The GI50 (HT-29) was > 100 µM (inactive), the GI50 (SW-620) was > 100 µM (inactive) and the GI50 (SF-295) was > 100 µM (inactive). The GI50 (LOX IMVI) was > 100 µM (inactive), the GI50 (786-0) was > 100 µM (inactive) and the GI50 (M14) was > 100 µM (inactive). For the same molecule, the GI50 (A498) was > 100 µM (inactive), the GI50 (DMS-114) was > 100 µM (inactive) and the GI50 (XF498) was > 100 µM (inactive). For the same molecule, the GI50 (UACC-62) was > 100 µM (inactive), the GI50 (HCC 2998) was > 100 µM (inactive) and the GI50 (RXF 631) was > 100 µM (inactive). For the same molecule, the GI50 (OVCAR-5) was > 100 µM (inactive), the GI50 (TK-10) was > 100 µM (inactive) and the GI50 (SK-OV-3) was > 100 µM (inactive). For the same molecule, the GI50 (NCI-H226) was > 100 µM (inactive), the GI50 (U-251) was > 100 µM (inactive) and the GI50 (OVCAR-4) was > 100 µM (inactive). The GI50 (OVCAR-3) was > 100 µM (inactive), the GI50 (OVCAR-8) was > 100 µM (inactive) and the GI50 (HOP-92) was > 100 µM (inactive). For the same molecule, the GI50 (NCI-H460) was > 100 µM (inactive), the GI50 (HCT-15) was > 100 µM and the GI50 (SF-539) was > 100 µM (inactive). The GI50 (SF-268) was > 100 µM (inactive), the GI50 (SN12C) was > 100 µM (inactive) and the GI50 (NCI-H23) was > 100 µM (inactive). The GI50 (SK-MEL-28) was > 100 µM (inactive), the GI50 (RPMI-8226) was > 100 µM (inactive) and the GI50 (COLO 205) was > 100 µM (inactive). For the same molecule, the GI50 (KM12) was > 100 µM (inactive).
